Values after ≈ are worked out from the molar mass of the structure shown. Like-named read-outs stand apart in the source and are kept apart here.
What was measured:
CHI Log D procedure = format: physicochemical; settings: pH 7.4, CHI Log D
Solubility in PBS = format: physicochemical
In short: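 Steps: ultracentrifuge the peptide PBS solution, inject the supernatant on HPLC, inject a 50 μM peptide DMSO solution as reference, then calculate solubility as area ratio (PBS/DMSO) × 50 uM.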

[1] = target: T1, beta-catenin/TCF4 engagement (Homo sapiens, UniProt P35222); experiment: Nano-BRET target engagement assay (B-cat-Halo & TCF4-Luc in HEK293 cells); format: cell-based; settings: read-out: NanoBRET Abs IC50
T1 construct: expressed in transfected cells; host or cells: HEK293
T1 sequence (P35222 1-781): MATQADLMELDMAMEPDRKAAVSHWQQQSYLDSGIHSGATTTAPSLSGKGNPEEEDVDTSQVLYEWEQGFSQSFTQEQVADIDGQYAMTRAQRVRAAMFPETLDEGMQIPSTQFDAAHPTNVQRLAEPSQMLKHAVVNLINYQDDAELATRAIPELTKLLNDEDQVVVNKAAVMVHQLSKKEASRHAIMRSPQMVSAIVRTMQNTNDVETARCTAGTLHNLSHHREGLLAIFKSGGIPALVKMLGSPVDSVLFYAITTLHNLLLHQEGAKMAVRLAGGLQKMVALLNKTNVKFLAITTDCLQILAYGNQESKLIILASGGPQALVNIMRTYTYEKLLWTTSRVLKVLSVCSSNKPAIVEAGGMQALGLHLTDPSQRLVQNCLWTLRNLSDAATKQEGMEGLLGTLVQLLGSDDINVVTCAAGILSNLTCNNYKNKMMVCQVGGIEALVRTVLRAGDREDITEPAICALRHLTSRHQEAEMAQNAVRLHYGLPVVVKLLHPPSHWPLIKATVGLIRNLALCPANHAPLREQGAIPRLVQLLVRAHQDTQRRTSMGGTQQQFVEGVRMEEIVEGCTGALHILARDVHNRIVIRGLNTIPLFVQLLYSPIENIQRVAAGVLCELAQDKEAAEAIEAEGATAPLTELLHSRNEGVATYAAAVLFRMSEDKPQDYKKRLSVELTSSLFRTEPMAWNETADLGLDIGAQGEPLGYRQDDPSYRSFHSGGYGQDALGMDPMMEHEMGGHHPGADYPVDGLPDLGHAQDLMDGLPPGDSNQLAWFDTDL

[2] = target: T2, full-length beta-Catenin (Uniprot ID P35222) (Homo sapiens, UniProt P35222); experiment: Fluorescence polarization IC50 (beta-catenin / 5FAM-TCF4 10-53 competition); format: binding; settings: read-out: beta-Catenin FP IC50
T2 construct: 10 nM full-length beta-Catenin (Uniprot ID P35222)
T2 sequence (P35222 1-781): T1 sequence (P35222 1-781)

CC(=O)N1CCC[C@]12CC=CCCCC1(CCCC=CCCCOC(=O)N3CC[C@@](C(=O)N[C@@H](Cc4ccccc4Cl)C(=O)N[C@@H](Cc4csc5ccccc45)C(=O)N[C@@H](CCC(N)=O)C(N)=O)(C3)NC(=O)[C@H](CO)NC(=O)[C@H](Cc3ccccc3)NC(=O)[C@H](C)NC(=O)[C@H](C)NC(=O)[C@H](CC(N)=O)NC(=O)[C@H](CC(=O)O)NC1=O)NC(=O)[C@H](CC(C)(C)C)NC(=O)[C@H](CC(=O)O)NC2=O (stereo partly drawn) [I-1018, Ac-PL3-Asp-Npg-B5-Asp-Asn-Ala-Ala-Phe-Ser-PyrS2-2C1F-BztA-Gln-NH2]
chromatographic logD (CHI Log D procedure): 2.35 | Solubility (Solubility in PBS): 10 µM (≈ 19.2 µg/mL) | IC50 [1]: 25.8 µM | IC50 [2]: 26 nM

CC(=O)N1CCC[C@]12CC=CCCCC1(CCCC=CCCCOC(=O)N3CC[C@@](C(=O)N[C@@H](Cc4ccccc4F)C(=O)N[C@@H](Cc4csc5ccccc45)C(=O)N[C@@H](CCC(N)=O)C(N)=O)(C3)NC(=O)[C@H]([C@@H](C)O)NC(=O)[C@H](Cc3ccccc3)NC(=O)[C@H](C)NC(=O)[C@H](C)NC(=O)[C@H](CC(=O)O)NC(=O)[C@H](CC(=O)O)NC1=O)NC(=O)[C@H](CC(C)(C)C)NC(=O)[C@H](CC(=O)O)NC2=O (stereo partly drawn) [I-1021, Ac-PL3-Asp-Npg-B5-Asp-Asp-Ala-Ala-Phe-Thr-PyrS2-2FF-BztA-Gln-NH2]
chromatographic logD (CHI Log D procedure): 2.05 | Solubility (Solubility in PBS; Solubility (uM)): 44 µM (≈ 84.4 µg/mL) | IC50 ([1]; absolute IC50): 11.5 µM | IC50 [2]: 5 nM

CC(=O)N1CCC[C@]12CC=CCCCC1(CCCC=CCCCOC(=O)N3CC[C@@](C(=O)N[C@@H](Cc4ccccc4F)C(=O)N[C@@H](Cc4csc5ccccc45)C(=O)N[C@@H](CCC(N)=O)C(N)=O)(C3)NC(=O)[C@H]([C@@H](C)O)NC(=O)[C@H](Cc3ccccc3)NC(=O)[C@H](C)NC(=O)[C@H](C)NC(=O)[C@H](CC(N)=O)NC(=O)[C@H](CC(=O)O)NC1=O)NC(=O)[C@H](CC(C)(C)C)NC(=O)[C@H](CC(=O)O)NC2=O (stereo partly drawn) [I-1022, Ac-PL3-Asp-Npg-B5-Asp-Asn-Ala-Ala-Phe-Thr-PyrS2-2FF-BztA-Gln-NH2]
chromatographic logD (CHI Log D procedure): 2.29 | Solubility (Solubility in PBS; Solubility (uM)): 20 µM (≈ 38.3 µg/mL) | IC50 [1]: 13.7 µM | IC50 [2]: 33 nM

CC(=O)N1CCC[C@]12CC=CCCCC1(CCCC=CCCCOC(=O)N3CC[C@@](C(=O)N[C@@H](Cc4ccccc4F)C(=O)N[C@@H](Cc4csc5ccccc45)C(=O)N[C@@H](CO)C(N)=O)(C3)NC(=O)[C@H]([C@@H](C)O)NC(=O)[C@H](Cc3ccccc3)NC(=O)[C@H](C)NC(=O)[C@H](C)NC(=O)[C@H](CC(=O)O)NC(=O)[C@H](CC(=O)O)NC1=O)NC(=O)[C@H](CC(C)(C)C)NC(=O)[C@H](CC(=O)O)NC2=O (stereo partly drawn) [I-1023, Ac-PL3-Asp-Npg-B5-Asp-Asp-Ala-Ala-Phe-Thr-PyrS2-2FF-BztA-Ser-NH2]
chromatographic logD (CHI Log D procedure): 2.17 | Solubility (Solubility in PBS; Solubility (uM)): 46 µM (≈ 86.3 µg/mL) | IC50 [1]: 15 µM | IC50 [2]: 10 nM

CC(=O)N1CCC[C@]12CC=CCCCC1(CCCC=CCCCOC(=O)N3CC[C@@](C(=O)N[C@@H](Cc4ccccc4Cl)C(=O)N[C@@H](Cc4csc5ccccc45)C(=O)N[C@@H](C(N)=O)[C@H](C)O)(C3)NC(=O)[C@H](CC(N)=O)NC(=O)[C@H](Cc3ccccc3)NC(=O)[C@H](C)NC(=O)[C@H](C)NC(=O)[C@H](CCC(=O)O)NC(=O)[C@H](CC(=O)O)NC1=O)NC(=O)[C@H](CC(C)(C)C)NC(=O)[C@H](CC(=O)O)NC2=O (stereo partly drawn) [I-1031, Ac-PL3-Asp-Npg-B5-Asp-Glu-Ala-Ala-Phe-Asn-PyrS2-2C1F-BztA-dThr-NH2]
chromatographic logD (CHI Log D procedure): 2.42 | Solubility (Solubility in PBS; Solubility (uM)): 47 µM (≈ 90.9 µg/mL) | IC50 ([1]; absolute IC50): 8.8 µM | IC50 [2]: 11 nM

CC(=O)N1CCC[C@]12CC=CCCCC1(CCCC=CCCCOC(=O)N3CC[C@@](C(=O)N[C@@H](Cc4ccccc4Cl)C(=O)N[C@@H](Cc4csc5ccccc45)C(=O)N[C@@H](C(N)=O)[C@H](C)O)(C3)NC(=O)[C@H](CO)NC(=O)[C@H](Cc3ccccc3)NC(=O)[C@H](C)NC(=O)[C@H](C)NC(=O)[C@H](CC(=O)O)NC(=O)[C@H](CC(=O)O)NC1=O)NC(=O)[C@H](CC(C)(C)C)NC(=O)[C@H](CC(=O)O)NC2=O (stereo partly drawn) [I-1032, Ac-PL3-Asp-Npg-B5-Asp-Asp-Ala-Ala-Phe-Ser-PyrS2-2C1F-BztA-dThr-NH2]
chromatographic logD (CHI Log D procedure): 2.43 | Solubility (Solubility in PBS; Solubility (uM)): 44 µM (≈ 83.3 µg/mL) | IC50 [1]: 10.4 µM | IC50 [2]: 15 nM

CC(=O)N1CCC[C@]12CC=CCCCC1(CCCC=CCCCOC(=O)N3CC[C@@](C(=O)N[C@@H](Cc4ccccc4Cl)C(=O)N[C@@H](Cc4csc5ccccc45)C(=O)N[C@@H](C(N)=O)[C@H](C)O)(C3)NC(=O)[C@H]([C@@H](C)O)NC(=O)[C@H](Cc3ccccc3)NC(=O)[C@H](C)NC(=O)[C@H](C)NC(=O)[C@H](CC(=O)O)NC(=O)[C@H](CC(=O)O)NC1=O)NC(=O)[C@H](CC(C)(C)C)NC(=O)[C@H](CC(=O)O)NC2=O (stereo partly drawn) [I-1033, Ac-PL3-Asp-Npg-B5-Asp-Asp-Ala-Ala-Phe-Thr-PyrS2-2ClF-BztA-dThr-NH2]
chromatographic logD (CHI Log D procedure): 2.5 | Solubility (Solubility in PBS; Solubility (uM)): 34 µM (≈ 64.8 µg/mL) | IC50 [1]: 8.6 µM | IC50 [2]: 10 nM

CC(=O)N1CCC[C@]12CC=CCCCC1(CCCC=CCCCOC(=O)N3CC[C@@](C(=O)N[C@@H](Cc4ccccc4Cl)C(=O)N[C@@H](Cc4csc5ccccc45)C(=O)N[C@@H](CCC(N)=O)C(N)=O)(C3)NC(=O)[C@H](CC(N)=O)NC(=O)[C@H](Cc3ccccc3)NC(=O)[C@H](C)NC(=O)[C@H](C)NC(=O)[C@H](CC(=O)O)NC(=O)[C@H](CC(=O)O)NC1=O)NC(=O)[C@H](CC1CCCCC1)NC(=O)[C@H](CC(=O)O)NC2=O (stereo partly drawn) [I-1040, Ac-PL3-Asp-Cha-B5-Asp-Asp-Ala-Ala-Phe-Asn-PyrS2-2C1F-BztA-Gln-NH2]
chromatographic logD (CHI Log D procedure): 2.27 | Solubility (Solubility in PBS): 50 µM (≈ 98.6 µg/mL) | IC50 ([1]; absolute IC50): 9.3 µM | IC50 [2]: 8 nM

CC(=O)N1CCC[C@]12CC=CCCCC1(CCCC=CCCCOC(=O)N3CC[C@@](C(=O)N[C@@H](Cc4ccccc4Cl)C(=O)N[C@@H](Cc4csc5ccccc45)C(=O)N[C@@H](CCC(N)=O)C(N)=O)(C3)NC(=O)[C@H](CC(N)=O)NC(=O)[C@H](Cc3ccccc3)NC(=O)[C@H](C)NC(=O)[C@H](C)NC(=O)[C@H](CC(=O)O)NC(=O)[C@H](CC(=O)O)NC1=O)NC(=O)[C@H](Cc1ccccc1)NC(=O)[C@H](CC(=O)O)NC2=O (stereo partly drawn) [I-1041, Ac-PL3-Asp-Phe-B5-Asp-Asp-Ala-Ala-Phe-Asn-PyrS2-2C1F-BztA-Gln-NH2]
chromatographic logD (CHI Log D procedure): 2.08 | Solubility (Solubility in PBS): 50 µM (≈ 98.3 µg/mL) | IC50 ([1]; absolute IC50): > 20 µM | IC50 [2]: 8 nM

CC(=O)N1CCC[C@]12CC=CCCCC1(CCCC=CCCCOC(=O)N3CC[C@@](C(=O)N[C@@H](Cc4ccccc4Cl)C(=O)N[C@@H](Cc4csc5ccccc45)C(=O)N[C@@H](CCC(N)=O)C(N)=O)(C3)NC(=O)[C@H]([C@@H](C)O)NC(=O)[C@H](Cc3ccccc3)NC(=O)[C@H](C)NC(=O)[C@H](C)NC(=O)[C@H](CC(=O)O)NC(=O)[C@H](CC(=O)O)NC1=O)NC(=O)[C@H](CC1CCCCC1)NC(=O)[C@H](CC(=O)O)NC2=O (stereo partly drawn) [I-1042, Ac-PL3-Asp-Cha-B5-Asp-Asp-Ala-Ala-Phe-Thr-PyrS2-2C1F-BztA-Gln-NH2]
chromatographic logD (CHI Log D procedure): 2.35 | Solubility (Solubility in PBS; Solubility (uM)): 46 µM (≈ 90.1 µg/mL) | IC50 [1]: 11.4 µM | IC50 [2]: 5 nM

CC(=O)N1CCC[C@]12CC=CCCCC1(CCCC=CCCCOC(=O)N3CC[C@@](C(=O)N[C@@H](Cc4ccccc4Cl)C(=O)N[C@@H](Cc4csc5ccccc45)C(=O)N[C@@H](CCC(N)=O)C(N)=O)(C3)NC(=O)[C@H]([C@@H](C)O)NC(=O)[C@H](Cc3ccccc3)NC(=O)[C@H](C)NC(=O)[C@H](C)NC(=O)[C@H](CC(=O)O)NC(=O)[C@H](CC(=O)O)NC1=O)NC(=O)[C@H](Cc1ccccc1)NC(=O)[C@H](CC(=O)O)NC2=O (stereo partly drawn) [I-1043, Ac-PL3-Asp-Phe-B5-Asp-Asp-Ala-Ala-Phe-Thr-PyrS2-2C1F-BztA-Gln-NH2]
chromatographic logD (CHI Log D procedure): 2.15 | Solubility (Solubility in PBS; Solubility (uM)): 43 µM (≈ 84 µg/mL) | IC50 [1]: > 20 µM | IC50 [2]: 12 nM

Reference: patent US20240116985A1, “STAPLED PEPTIDES AND METHODS THEREOF” (priority 2020, published 2024)
